Consider 1 compound from patent US10842794B2, “Use of Sigma-1 receptor agonist compounds” (MTA TÁMOGATOTT KUTATÓCSOPORTOK IRODÁJA, priority 2014, dated 2020).

Molecules are shown by their SMILES.

For assay [1], the system named is rat model of bleomycin-induced lung fibrosis. As to the kind of experiment: Rat model of bleomycin induced pulmonary fibrosis: Masson trichrome staining of lung. The assay is classed as in vivo. The settings on record: fluvoxamine 20 mg/bwkg/day per os. The protocol: Masson trichrome staining of tissue sections was performed Bars represent Mean±SEM, n=6/group). Specifically:
(§1) For the induction of pulmonary fibrosis male Wistar rats were anesthetized. Bleomycin (5 mg/bwkg in a 300 μl solution of isotonic saline) or 300 μl isotonic saline was administered into the trachea using a 30G needle.
(§2) Animals were randomly divided into 4 groups of 6 rats each as follows (i)—control group was sham operated, received isotonic saline per os daily for 3 weeks, (ii) vehicle treated group: received isotonic saline per os daily for 3 weeks after the induction of lung fibrosis, (iii) fluvoxamine treated group: received fluvoxamine (20 mg/bwkg/day per os for 3 weeks after the induction of lung fibrosis), (iv) fluvoxamine+NE100 treated group: received fluvoxamine (20 mg/bwkg/day; per os) and 1 mg/bwkg/day NE100 (i.p. for 3 weeks after the induction of lung fibrosis. […]
The stained sections were viewed and photographed with Pannoramic 250 Flash and Pannoramic Viewer 1.15.2 (3D HISTECH Ltd. Budapest, Hungary) Adobe Photoshop 13.0 and Scion Image for Windows software were used for the analysis. […] Finally these ratios were statistically analyzed in all of the treatment groups.

Assay [2] concerns mice with unilateral ureter obstruction (UUO). Briefly: Mice model of unilateral ureteral obstruction (UUO): Masson's trichrome, tubulointerstitial fibrosis. It counts as in vivo. The settings on record: fluvoxamine 20 mg/bwkg/day for one week, 7 days after UUO.
In assay [3] the test system is Streptozotocin induced type 1 diabetic rats. As to the kind of experiment: Diabetic rat kidney: PAS staining, mesangial matrix expansion. The assay is classed as in vivo.
Assay [4] relates to NRK49F rat kidney interstitial fibroblast cell lines. Briefly: PDGFB-induced myofibroblast proliferation (MTT). It counts as cell-based. The settings on record: 10 ng/mL PDGFB, 24 hours, different concentrations of agonist.
For assay [5], the system named is Streptozotocin induced type 1 diabetic rats. Briefly: Diabetic rat kidney: fibronectin staining. It counts as in vivo. The settings on record: fluvoxamine 20 mg/bwkg/day for 2 weeks from the 5th week of diabetes.
Assay [6] shares this test system. Briefly: Diabetic rat kidney: Sirius Red staining of ECM components. It counts as in vivo. The settings on record: long term 7-weeks fluvoxamine treatment.
The test system of assay [7] is FN1, COL1A1 and MMP2 mRNA in HTM-5 cells. As to the kind of experiment: Fibrotic marker mRNA expression in HTM-5 cells (RT-PCR). The assay is classed as cell-based, human. The settings on record: normalised to RN18S.
The test system of a further assay is NRK49F myofibroblasts. The settings on record: all applied concentrations, even the smallest 1 μM.
Assay [8] concerns human trabecular meshwork-5 (HTM-5) cells. Briefly: Actin cytoskeleton rearrangement in HTM-5 cells (phalloidin F-actin staining). The assay is classed as cell-based. The settings on record: 24 h, 20 ng/mL PDGF and 10 μM FLU.
Assay [9] concerns Streptozotocin induced type 1 diabetic rats. Briefly: Diabetic rat kidney: Masson's trichrome staining, tubulointerstitial fibrosis. The assay is classed as in vivo.
The test system is the same in assay [10]. Briefly: Diabetic rat kidney: αSMA protein level, western blot. The assay is classed as in vivo. The settings on record: fluvoxamine, predominantly the dose of 20 mg.
Assay [11] has as its system mice with unilateral ureter obstruction (UUO). As to the kind of experiment: Mice model of UUO: αSMA protein in kidney, western blot. The settings on record: one week fluvoxamine treatment 20 mg/bwkg/day. It counts as in vivo.
Assay [12] has as its system rat model of bleomycin-induced lung fibrosis. Briefly: Rat model of bleomycin induced pulmonary fibrosis: αSMA protein in lung, western blot. It counts as in vivo. The settings on record: fluvoxamine 20 mg/bwkg/day, three weeks after bleomycin. The protocol:
(Bars represent Mean±SEM, n=6/group).
as §1, §2
Tissue samples were lysed in buffer containing leupeptin, aprotinin, Triton X-100, Tris-HCl, Ethylene glycol-bis (2-aminoethylether),N,N,N′,N′-tetraacetic-acid, NaF, Phenylmethylsulphonylfluoride and Na-orthovanadate (each substance were purchased from Sigma-Aldrich Co., St. Louis, Mo., USA) and centrifuged to pellet nuclei and large cellular fragments. Protein concentration of the supernatants was determined by Bradford assay (Bio-Rad Laboratories, Hercules, Calif., USA). […] Bands were analyzed with Quantity One software version 4.6.9. […]
In general terms: A western blot detects proteins with antibodies after separation by electrophoresis.

The subject of assay [13] is collagen I and collagen III mRNA in NRK49F cells. Briefly: TGFβ-induced collagen-1 and collagen-3 production, quantitative RT-PCR. The settings on record: 20 μM/L fluvoxamine. It counts as cell-based, rat.

Procedure for NRK49F myofibroblasts: In 6-well plates of NRK49F myofibroblasts (6×10^6 cells/well) TGF-β (1 nM) induced production of fibrillar components of the extracellular matrix was measured by Sirius Red staining. To investigate the effect of S1R agonist compounds a group of cells was treated for 48 hours with the various S1R agonists. Solvent treated cells served as controls. (Bars represent mean±SEM)
To investigate the deposition of fibrillar collagen Sirius Red staining was performed. 48 hours after the treatment with TGF-β and said compounds the NRK-49F cells were incubated for 10 minutes with Kahle fixative solution. 0.1% Sirius Red (Direct Red 80, Sigma-Aldrich) in 1.2% picric acid was added for each well and plates were incubated for 30 minutes at RT. The unconnected dye molecules were washed with distilled water. The bound Sirius Red dye was eluated with 0.1 M NaOH solution, absorbance was recorded at 540 nm in a Hidex Chameleon Microplate Reader (Triathler, Plate Chameleion, 300SL Lablogic Systems, Inc., Brandon, Fla., USA) used MikroWin program. Vehicle treated cells served as controls.

Turning to `COCCCC/C(=N\OCCN)c1ccc(C(F)(F)F)cc1` [fluvoxamine, 2-{[(E)-{5-Methoxy-1-[4-(trifluoromethyl)phenyl]pentylidene}amino]oxy}ethanamine], the “fibrotic lesions of the lung after bleomycin (Masson trichrome)” value in assay [1] is “prevented almost totally the fibrotic effect of bleomycin”. Besides, the “tubulointerstitial fibrosis after UUO (Masson's trichrome)” value in assay [2] is on record as “decreased tubulointerstitial fibrosis”. Further, the “extent of mesangial matrix expansion (PAS)” value in assay [3] (all doses of fluvoxamine) is “remarkably diminished”. Also, in assay [3] (long-term (7-weeks) fluvoxamine treatment), the “prevention of renal tissue damage (PAS), comparison of regimens” value is on record as “most effective in preventing renal tissue damage”. In addition, the PDGF-induced myofibroblast proliferation entry in [4] was “significantly decreased PDGF-induced myofibroblast proliferation”. Besides, the “fibrotic lesion (fibronectin staining) versus diabetic rats” value in assay [5] is recorded as “smaller”. The “diabetes induced excessive ECM accumulation (Sirius Red)” value in [6] is “significantly reduced”. Moreover, in [7] (20 ng/ml PDGF plus 5 μM FLU), the “COL1A1 (collagen1a1) mRNA expression” value was “inhibit the expression of each fibrosis marker tested in a dose dependent manner” and the “FN1 (fibronectin) mRNA expression” value was “inhibit the expression of each fibrosis marker tested in a dose dependent manner”. Further, the “MMP2 (matrix metalloproteinase 2) mRNA expression” value in [7] (20 ng/ml PDGF plus 10 μM FLU) is “inhibit the expression of each fibrosis marker tested in a dose dependent manner”. Also, in the assay with NRK49F myofibroblasts, the “TGFβ-induced ECM production (Sirius Red)” value was “significantly inhibited TGFβ-induced ECM production”. In addition, in [8], the “fibrotic rearrangement and active production of actin filaments” value is recorded as “blocked”. The “diabetes induced tubulointerstitial fibrosis (Masson's trichrome)” value in assay [9] (fluvoxamine 20 mg 7 weeks, 20 mg 2 weeks, 2 mg 2 weeks per os) is “ameliorated the diabetes induced tubulointerstitial fibrosis”. Besides, the “renal structure (Masson's trichrome)” value in assay [9] (long-term (7-weeks) fluvoxamine 20 mg/bwkg/day) was “restored almost the normal renal structure”. Also, in assay [10], the “αSMA protein level in kidney of diabetic rats” value was “reduced αSMA protein level by the half”. The “UUO-induced αSMA production in kidney” value in assay [11] was “successfully decreased UUO-induced αSMA production”. Moreover, in assay [12], the “bleomycin-induced αSMA production in the lung” value is on record as “successfully reduced bleomycin-induced αSMA production nearly to the level of controls”. Besides, the “mRNA expression of collagen-1 and collagen-3” value in [13] (by 24 hours) is on record as “remarkably diminished”. Besides, the “collagen production (collagen-1 and collagen-3 mRNA)” value in [13] (by 48 hours) is reported as “returned to the level of normal controls”.
